The assay deals with Acetylcholinesterase (Electrophorus electricus, UniProt O42275). Nature of the assay: Inhibition of electric eel AChE by Ellman's method.
Chain of Acetylcholinesterase (O42275 whole entry): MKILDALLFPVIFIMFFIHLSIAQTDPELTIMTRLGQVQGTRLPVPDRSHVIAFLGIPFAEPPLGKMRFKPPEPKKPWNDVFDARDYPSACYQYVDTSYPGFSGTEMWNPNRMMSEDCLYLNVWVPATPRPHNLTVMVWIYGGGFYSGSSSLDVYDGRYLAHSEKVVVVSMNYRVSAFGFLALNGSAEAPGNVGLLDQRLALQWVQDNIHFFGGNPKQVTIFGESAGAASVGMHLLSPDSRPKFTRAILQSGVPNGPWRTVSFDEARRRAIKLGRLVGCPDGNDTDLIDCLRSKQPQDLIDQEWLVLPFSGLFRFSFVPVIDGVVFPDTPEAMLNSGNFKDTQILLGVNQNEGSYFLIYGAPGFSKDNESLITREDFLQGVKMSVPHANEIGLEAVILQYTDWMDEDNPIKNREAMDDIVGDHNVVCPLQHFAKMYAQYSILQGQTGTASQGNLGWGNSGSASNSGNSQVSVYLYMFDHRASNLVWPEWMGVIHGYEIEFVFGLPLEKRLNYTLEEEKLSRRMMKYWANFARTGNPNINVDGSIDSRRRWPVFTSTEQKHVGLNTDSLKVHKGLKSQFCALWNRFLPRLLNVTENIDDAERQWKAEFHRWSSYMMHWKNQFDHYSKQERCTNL
`COc1cc(-c2cc3c(c(=O)o2)C[C@]2(O)[C@@]4(C)C(=O)C=C[C@](C)(CO)[C@]4(O)CC[C@@]2(C)O3)cc(OC)c1OC` gave an IC50 of 790 nM.
The value for `C=CC[N+](C)(C)c1ccc(CCC(=O)CCc2ccc([N+](C)(C)CC=C)cc2)cc1` was 10 nM; that for `COc1cc(-c2cc3c(c(=O)o2)C[C@]2(O)[C@@]4(C)C(=O)C=C[C@@](C)(CO)[C@]4(O)CC[C@@]2(C)O3)cc(OC)c1OC` [4ALPHA-(HYDROXYMETHYL)-4ALPHA-DEMETHYLTERRITREM B] was 0.423 nM.

The values above are taken from ChEMBL document CHEMBL1146438, “Structure and anti-acetylcholinesterase activity of 4 alpha-(hydroxymethyl)-4 alpha-demethylterritrem B” (J Nat Prod, 1997).
